Experimental data taken from patent US20220133641A1, “TOPICAL FILM-FORMING SPRAY” (GRACE THERAPEUTICS INC., priority 2015, published 2022).
Structures can show the parent of a compound that is named as a salt.

Assays:
[1] = In-vivo study in healthy rats, drug plasma concentration after 4 sprays; details: rat, topical
Protocol: A total of 4 sprays were applied (two sprays on the back and two sprays on the abdominal area of the animal) using a metered dose mechanical spray pump. Blood samples were collected at 15, 30 minutes, 1, 2, 4, 8 and 24 hours. All samples were analyzed using a validated analytical LC-MS method.

[2] = Solubility study for drug saturation in spray vehicle (Example 45); type: physicochemical
Protocol: Solubility studies to find out concentration at which the drug is present at saturation levels were performed as follows: The drug (bupivacaine hydrochloride 2, 4, 8, 10,12 & 16 mg) was added to, propylene glycol, oleyl alcohol and menthol in ethanol under stirring and mixing till clear solution is formed. The film-forming polymer in the clear drug solution was added while stirring till polymer dissolves or hydrates completely.

What does the source list for `CCCCN1CCCCC1C(=O)Nc1c(C)cccc1C` (stereo not shown) [Bupivacaine HCl]?
concentration at 0 h ([1]; 8 mg strength): 1 ng/mL; concentration at 0.25 h ([1]; 8 mg strength): 82 ng/mL; concentration at 0.5 h ([1]; 8 mg strength): 119 ng/mL; concentration at 1 h ([1]; 8 mg strength): 148 ng/mL; concentration at 2 h ([1]; 8 mg strength): 95 ng/mL; concentration at 4 h ([1]; 8 mg strength): 221 ng/mL; concentration at 8 h ([1]; 8 mg strength): 147 ng/mL; concentration at 24 h ([1]; 8 mg strength): 55 ng/mL; concentration at 0 h ([1]; 12 mg strength): 0 ng/mL; concentration at 0.25 h ([1]; 12 mg strength): 73 ng/mL; concentration at 0.5 h ([1]; 12 mg strength): 109 ng/mL; concentration at 1 h ([1]; 12 mg strength): 249 ng/mL; concentration at 2 h ([1]; 12 mg strength): 180 ng/mL; concentration at 4 h ([1]; 12 mg strength): 270 ng/mL; concentration at 8 h ([1]; 12 mg strength): 329 ng/mL; concentration at 24 h ([1]; 12 mg strength): 172 ng/mL; appearance of drug solution on standing ([2]; 16 mg of drug): precipitated out from clear solution after standing; appearance of drug solution on standing ([2]; other solutions (2, 4, 8, 10, 12 mg)): clear and no precipitate was observed; concentration at which drug saturation was achieved ([2]; propylene glycol, oleyl alcohol, menthol, ethanol, film-forming polymer): about 12 mg per spray
